One test concerns the target T1, human glucagon receptor (Homo sapiens, UniProt P47871).
T1 construct: expressed in transfected cells; host or cells: CHO DG44
The test can be described thus: cAMP response in CHO cell line expressing human glucagon receptor. Conditions: read-out: EC50 CHO/GCGR. It is filed as cell-based. The method, then: The PCR product was cloned into the known animal cell expression vector x0GC/dhfr to prepare a recombinant vector x0GC/GCGR.
CHO DG44 cell line cultured in DMEM/F12 (10% FBS) medium was transfected with the recombinant vector x0GC/GCGR using LIPOFECTAMINE®, and cultured in a selection medium containing 1 mg/mL G418 and 10 nM methotraxate.
The cultured cells were washed with KRB buffer and suspended in 40 ml of KRB buffer containing 1 mM IBMX, and left at room temperature for 5 minutes. […] Then, 20 mL of cell lysis buffer was added for cell lysis, and the cell lysates were applied to a cAMP assay kit (Molecular Device, USA) to measure cAMP concentrations. EC50 values were calculated therefrom, and compared to each other.

The conditions of test [1]: taken for 1 year; cited from earlier work.

T1 sequence (P47871 26-477): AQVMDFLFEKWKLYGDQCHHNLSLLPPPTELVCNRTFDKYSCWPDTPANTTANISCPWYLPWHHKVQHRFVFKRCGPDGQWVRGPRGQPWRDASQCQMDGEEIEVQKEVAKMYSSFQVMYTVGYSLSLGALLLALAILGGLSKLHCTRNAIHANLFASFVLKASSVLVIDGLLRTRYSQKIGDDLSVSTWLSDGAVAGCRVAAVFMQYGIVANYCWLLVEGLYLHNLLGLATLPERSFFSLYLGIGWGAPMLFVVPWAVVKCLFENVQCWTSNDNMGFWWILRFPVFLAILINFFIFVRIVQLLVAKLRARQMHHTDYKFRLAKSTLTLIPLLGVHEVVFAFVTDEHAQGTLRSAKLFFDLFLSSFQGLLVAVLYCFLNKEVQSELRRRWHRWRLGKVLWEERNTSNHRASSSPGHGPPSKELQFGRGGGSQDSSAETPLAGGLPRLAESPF

As to `CSCC[C@H](NC(=O)[C@H](CC(C)C)NC(=O)[C@H](Cc1c[nH]c2ccccc12)NC(=O)[C@H](CCC(N)=O)NC(=O)[C@@H](NC(=O)[C@H](Cc1ccccc1)NC(=O)[C@H](CCC(=O)O)NC(=O)[C@H](CCCCN)NC(=O)[C@H](C)NC(=O)[C@H](CCCNC(=N)N)NC(=O)[C@H](CCCCN)NC(=O)[C@H](CCC(=O)O)NC(=O)[C@H](CC(=O)O)NC(=O)[C@H](CC(C)C)NC(=O)[C@H](Cc1ccc(O)cc1)NC(=O)[C@H](CCCCN)NC(=O)[C@H](CO)NC(=O)[C@H](Cc1ccc(O)cc1)NC(=O)[C@H](CC(=O)O)NC(=O)[C@H](CO)NC(=O)[C@@H](NC(=O)[C@H](Cc1ccccc1)NC(=O)[C@@H](NC(=O)CNC(=O)[C@H](CCC(N)=O)NC(=O)C(C)(C)NC(=O)[C@@H](N)Cc1c[nH]cn1)[C@@H](C)O)[C@@H](C)O)C(C)C)C(=O)N[C@@H](CC(N)=O)C(=O)N[C@H](C(=O)N[C@@H](CS)C(=O)O)[C@@H](C)O` [SEQ ID NO. 24], at human glucagon receptor, the EC50 stood at 6.95 nM.

Turning to `CSCC[C@H](NC(=O)[C@H](CC(C)C)NC(=O)[C@H](Cc1c[nH]c2ccccc12)NC(=O)[C@H](CCC(N)=O)NC(=O)[C@@H](NC(=O)[C@H](Cc1ccccc1)NC(=O)[C@H](CCC(=O)O)NC(=O)[C@@H]1CCCCNC(=O)CC[C@H](NC(=O)[C@H](CC(=O)O)NC(=O)[C@H](CC(C)C)NC(=O)[C@H](Cc2ccc(O)cc2)NC(=O)[C@H](CCCCN)NC(=O)[C@H](CO)NC(=O)[C@H](Cc2ccc(O)cc2)NC(=O)[C@H](CC(=O)O)NC(=O)[C@H](CO)NC(=O)[C@@H](NC(=O)[C@H](Cc2ccccc2)NC(=O)[C@@H](NC(=O)CNC(=O)[C@H](CCC(N)=O)NC(=O)C(C)(C)NC(=O)[C@@H](N)Cc2c[nH]cn2)[C@@H](C)O)[C@@H](C)O)C(=O)N[C@@H](CCCCN)C(=O)N[C@@H](CCCNC(=N)N)C(=O)N[C@@H](C)C(=O)N1)C(C)C)C(=O)N[C@@H](CC(N)=O)C(=O)N[C@H](C(=O)N[C@@H](CS)C(=O)O)[C@@H](C)O` [SEQ ID NO. 25], at human glucagon receptor, the EC50 worked out at 1.3 nM.

In the case of `CCCCCCCCCCC[C@@H](C[C@@H]1OC(=O)[C@H]1CCCCCC)OC(=O)[C@H](CC(C)C)NC=O` [orlistat], the weight loss in test [1] was 4 kg.
